Measurements taken from US6646006B2, “Enhancement of vascular function by modulation of endogenous nitric oxide production or activity” (The Board of Trustees of the Leland Stanford Junior …, priority 1993, dated 2003).
“Also recorded” adds a separate entry of the source.

Experiments:
[1] = system: hypercholesterolemic rabbits; assay: Oral arginine in cholesterol-fed rabbits: biochemical and physiological measurements; format: in vivo, rabbit; details: 1% cholesterol diet + 2.25% L-arginine HCl in drinking water, vs Control or Chol diet
Source text: Study design: (See, Cooke et al., 1992, supra) Male New Zealand white rabbits (n=49) were assigned to one of three treatment groups: 10 were fed with normal rabbit chow for ten weeks (Control); 19 received chow enriched with 1% cholesterol (Chol); and 20 received a 1% cholesterol diet supplemented with 2.25% L-arginine hydrochloride in the drinking water (Arg.). […] Subsequently the animals were sacrificed and the left main coronary artery and the thoracic aorta were harvested for studies of vascular reactivity and histomorphometry. In some animals, blood was collected for studies of platelet and monocyte reactivity.
Results: Biochemical and physiological measurements. […] Serum cholesterol measurements were elevated equally in both groups receiving the 1% cholesterol diet [50±6 vs. 1629±422 vs. 1852±356 mg/dl respectively for Control (=10), Chol (=13), and Arg (=14)].

[2] = system: platelets; assay: ADP-initiated platelet aggregation (nephelometry), platelets from treated rabbits; format: in vivo, rabbit
Protocol: The effect of L-arginine supplementation on platelet reactivity in rabbits that had normal chow (Control; n=6), a 1% cholesterol diet (Chol; n=5), or a 1% cholesterol diet supplemented with oral arginine (Arg; n=6), as detailed above, was examined. Arterial blood obtained after central ear artery cannulation was anticoagulated with 13 mM sodium citrate. Platelet-rich suspension was prepared by washing platelets in calcium-free Krebs-Henseleit solution and resuspending them in Tyrode's solution with albumin. Aggregation was initiated by addition of adenosine diphosphate and monitored by standard nephelometric techniques. In platelets derived from Chol animals, aggregation was not different in rate or maximum extent in comparison to platelets from Control animals (A, in FIG. 2). By contrast, aggregation of platelets from Arg animals was reduced by 50% (B, in FIG. 2).
Therefore, the anti-platelet effect of chronic oral arginine administration can be credited to an increased synthesis of endogenous NO. Furthermore, NO synthesis may be induced in both the platelets and the endothelium.

[3] = system: rabbit aortic endothelium; assay: Ex vivo binding of WEHI 78/24 monocytoid cells to rabbit aortic endothelium; format: in vivo; details: two weeks, L-arginine supplementation
Source text: Methods. Animals. Male New Zealand White rabbits were pair fed, receiving one of the following dietary interventions for two weeks: normal rabbit chow (Cont, n=7); rabbit chow enriched with 1% cholesterol (Chol, n=7); or 1% cholesterol chow supplemented with 2.25% L-arginine HCl in the drinking water (Arg, n=7) ad libitum throughout the course of the study. […] One day before sacrifice (after 2 weeks of dietary intervention), animals were lightly sedated and the central ear artery was cannulated for collection of blood samples.
Mononuclear cell culture and isolation. Murine monocytoid cells, WEHI 78/24 cells were grown in Dulbecco's Modified Eagle's Medium supplemented 10% fetal calf serum (vol/vol) and were kept in an atmosphere of 5% CO2/95% air. Prior to binding studies, mononuclear cells were fluorescently labeled with TRITC (3 μg/ml). To confirm the results using WEHI cells, in some studies binding studies were performed in parallel using rabbit mononuclear cells. Mononuclear cells were isolated from fresh whole blood of Control rabbits before sacrifice.
Preparation of aortic endothelium and binding assay. […]
After 10 minutes the HBSS medium was replaced by binding medium containing WEHI cells. […] The aortic segments were then removed and placed on a glass slide, and adherent cells counted under epifluorescent microscopy from at least 30 sites on each segment.

[4] = system: MCP-1; assay: Northern analysis of MCP-1 expression in thoracic aortae; format: in vivo, rabbit; details: two weeks; L-NA on normal chow, Arg on high cholesterol diet
Source text: To investigate the role of endogenous NO in the regulation of MCP-1 in vivo, NZW rabbits were fed normal chow, normal chow plus nitro-L-arginine (L-NA) (to inhibit vascular NO synthesis), high cholesterol diet (Chol), or high cholesterol diet supplemented with L-arginine (Arg) (to enhance NO synthesis). After two weeks, thoracic aortae were harvested and total RNA was isolated. […] These studies indicate that the anti-atherogenic effect of NO may be mediated in part by its inhibition of MCP-1 expression. NO inhibits the generation of superoxide anion by the vascular cells and thereby turns off an oxidant-responsive transcriptional pathway (i.e. NFκB-mediated transcription) activating MCP-1 expression.

[5] = system: hypercholesterolemic rabbits; assay: Local intraluminal arginine after iliac artery angioplasty in cholesterol-fed rabbits; format: in vivo, rabbit; details: local infusion 6 mM, four weeks
Source text: FIG. 8 is a histogram showing the effect of local-intraluminal administration of arginine on restenosis. Hypercholesterolemic rabbits had balloon angioplasty of the iliac artery. Immediately thereafter some animals received an infusion of arginine directly into the vessel by means of a catheter designed to apply high local concentrations of arginine to the vessel. Two to four weeks later, vessels were removed from the animals, and examined microscopically. Thickening of the vessel wall (internal thickening or “restenosis”) was reduced in the animals treated with intraluminal infusion of arginine (ARG) in comparison to those treated with vehicle. (See Ex. 12)
To determine if intraluminal application of arginine to the vessel wall at the time of balloon angioplasty could inhibit lesion formation, the following study was performed. Rabbits (n=7) were fed a 1% cholesterol diet. After one week, angioplasty of the iliac arteries was performed. After angioplasty of one iliac artery, a local infusion catheter was used to expose the injured area to a high concentration of arginine (6 mM). The other iliac artery was subjected to balloon angioplasty, but not treated with a local infusion. After four weeks, the vessels were harvested, and segments of the arteries processed for histomorphometry.

[6] = system: platelets; assay: Platelet aggregometry in hypercholesterolemic humans after oral L-arginine; format: in vivo, human
Source text: FIG. 13 is a set of histograms showing aggregation of platelets obtained in hypercholesterolemic humans (hc), and individuals with normal cholesterol levels (nc). Platelet aggregation ex vivo in response to adenosine diphosphate (ADP) is increased in hc individuals in comparison to normal individuals. […] (See Ex. 16)
In this study we tested the hypothesis that chronic L-arginine supplementation would inhibit platelet reactivity in hypercholesterolemic humans. Venous blood was collected from normal (NC; n=11) and hypercholesterolemic (HC; n=22) volunteers for isolation of platelet-rich plasma and aggregometry. […]

[7] = system: coronary arteries; assay: Coronary response to intracoronary acetylcholine after intravenous L-arginine in cardiac transplant recipients; format: in vivo, human
Protocol: Cardiac transplant recipients scheduled for elective annual coronary angiography at Stanford University hospital were screened for possible participation in the study. The study protocol was approved by the Stanford University Committee on Human Subjects in Medical Research. All patients gave written informed consent. Eighteen patients who had cardiac transplantation 1 to 13 years previously were studied.
Vasoactive medications were discontinued at least 12 hours before the study. […] An infusion catheter was then advanced over a Doppler flow velocity guide wire into a nonbranching segment of the coronary artery for infusion of acetylcholine (which stimulates the endothelium to release NO). After baseline angiography was performed, increasing concentrations of acetylcholine were serially infused over 3 minutes. Infusion of acetylcholine continued until the maximum dose (10^−4 mol/L) was reached or until total coronary occlusion occurred. Then an intravenous infusion of L-arginine (30 g over 15 minutes) was performed. Thereafter, the intracoronary infusion of acetylcholine was repeated. Coronary angiography and Doppler flow velocity recording was performed at the end of the L-arginine infusion and after the infusion of each concentration of acetylcholine.

## N=C(N)NCCC[C@H](N)C(=O)O [L-arginine]
[1]
  plasma arginine levels: twofold elevation
[2]; arginine-treated animals
  cGMP content in aggregated platelets: two-fold greater
[2]; platelets from Arg animals, adenosine diphosphate
  reduction of platelet aggregation: 50%
[3]
  increased WEHI cell binding to aortic endothelium of hypercholesterolemic animals: significantly attenuated
[4]
  expression of MCP-1 in aortae: decreased
[5]
  thickening of the vessel wall in arginine-treated vessels: significantly reduced
[6]; 2 weeks of oral L-arginine
  platelet aggregation in response to ADP: attenuated
[6]; two weeks, collagen 5 mg/ml
  aggregability of HC platelets: reduced
[7]; 30 g i.v. over 15 minutes
  complications or side-effects of the infusion: no complications or side-effects
[7]; acetylcholine 10^−4 mol/L, after L-arginine 30 g i.v. over 15 minutes
  Epicardial coronary vasoconstriction caused by acetylcholine: −2.8%
[7]; after L-arginine 30 g i.v.
  increase in coronary blood flow to acetylcholine: significantly enhanced; also recorded: improved
